Reference: patent US8609417B2, “Methods and compositions for stem cell cultures” (The Regents of the University of California, priority 2009, dated 2013)

Legend:
Assay type in all cases: cell-based, human
hiPS cells [1] = experiment: Clonal assay evaluated by alkaline phosphatase (ALP) assay; conditions: single cell per well, Matrigel-coated 96-well plates, blebbistatin 5 μM, 7 days
Protocol: hES or hiPS cells in mTeSR supplemented with or without blebbistatin were plated on Matrigel-coated 96-well plates at a single cell per well. Seven days after plating, cells were subjected to alkaline phosphatase assay using Alkaline Phosphatase Detection Kit (Millipore) according to the manufacturer's instruction.

hiPS cells [2] = experiment: TUNEL assay (apoptosis)
Protocol: The samples in triplicates used for cell viability assay were immediately tested by TUNEL assay by using APO-DIRECT kit (BD Pharmingen) according to the manufacturer's protocol. The number of TUNEL (FITC) or propidium iodide (PI)-positive cells was counted by hemocytometer under fluorescent microscopy with 20× objective. When necessary, FITC-labeled cells were verified by using 40× objective to exclude non-specific signal. At least 300 cells were evaluated per each sample and counting was repeated for 2 times. The ratio of the number of TUNEL-positive cells to the number of PI-positive cells was calculated. The representative result was shown in the figure from experiments repeated for at least 3 times. Although flow cytometric analysis was initially attempted, due to persistent cell aggregations from suspension culture experiments even after extensive trypsinization and trituration, we decided to switch to manual cell counting which well correlated with the data obtained from cell viability assay.

hiPS cells [3] = experiment: Cell growth assay (population doubling time); conditions: hiPS cells on PDL in mTeSR, compound at 5 μM
Protocol: For the cell growth assay, hiPS or hES cells were plated at 2.5×10^4 cells/cm^2 on plates coated with PDL or Matrigel in mTeSR in the presence of blebbistatin at 5 μM or Y-27632 at 5 μM (PDL) or in the absence of compounds (Matrigel). Cells were harvested at the indicated time points, stained with trypan blue, and counted by the hemocytometer.

hES cells = experiment: Cell-cell contact of hES cells (morphology, cell contact index); conditions: hES cells, 10 μM
Protocol: Rock and myosin II regulate cell-cell interactions in hES cells. To test whether the observed function of RRM signaling in cell-cell contacts in mES cells is conserved in hES cells, H1 cells grown under the feeder-free condition with Matrigel™ and conditioned medium (CM) (FIG. 3A) were treated with C3 exoenzyme. […] Rock-inhibitor treatment also led to cell adhesion defects although it required a higher concentration (20 μM) than that (10 μM) for mES cells (FIG. 3C). Myosin IIA and IIB were colocalized with cell-cell borders in hES cells, which indicates their potential role in cell-cell adhesions (FIG. 3D).

Oct3/4 and Nanog = Oct3/4 and Nanog expression by QPCR, Western analysis and immunocytochemistry; conditions: hES cells in mTeSR or hESm, different concentrations, 48 h
Protocol: For immunocytochemistry, cells grown on culture vessels were fixed in 4% paraformaldehyde (USB Corporation). After washing with PBS/BSA, the samples were incubated with primary antibodies recognizing the target proteins at 4° C. overnight. The primary antibodies used in the study include Oct3 (BD Biosciences), myosin IIA (Covance), and myosin IIB (Covance). The samples were washed for three times, and incubated with appropriate secondary antibodies conjugated with Alexa Fluorophore (Invitrogen) at room temperature for 30 min. […]
QPCR. […] The extracted RNA sample was quantified by UV spectrophotometer, and qualified by the RNA Nano Lab chip (Agilent Technologies). […] Each cycle threshold (CT) value was determined by iQ5 optical system software (BioRad), and normalized by the β-actin expression level. […]
Total protein was extracted with RIPA buffer (20 mM Tris-HCl, pH 7.5, 150 mM NaCl, 1 mM Na2EDTA, 1 mM EGTA, 1% NP-40, 1% sodium deoxycholate, 2.5 mM sodium pyrophosphate, 1 mM β-glycerophosphate, 1 mM Na3VO4, and protease inhibitors). Protein concentrations were determined by BCA Protein Assay kit (Pierce). […]

hiPS and hES cells = experiment: Standard G-banded karyotyping; conditions: cells grown under blebbistatin/PDL for 20 passages
Protocol: Standard G-banded karyotyping was carried out for each cell line approximately every 10 to 20 passages.

hiPS cells and hES cells = experiment: Cell survival / embryoid body formation in low-density suspension culture; conditions: compared with Y27632
From the text: While hiPS and hES cells can form cell aggregates and subsequently grow as embryoid bodies when plated at high densities on non-adhesive culture surfaces such as non-tissue culture-treated plates, they mostly undergo apoptosis when plated at low densities that prevent cells from forming aggregates. This is because human pluripotent stem cells are epithelical cells that are programmed to activate cell death signals upon detachment from culture surface (anoikis).

Cc1ccc2c(c1)C(=O)C1(O)CCN(c3ccccc3)C1=N2 (centres unmarked) [blebbistatin, 1-Phenyl-1,2,3,4-tetrahydro-4-hydroxypyrrolo[2,3-b]-7-methylquinolin-4-one]
Cloning efficiency (ratio of wells with an ALP-positive colony to wells seeded) (hiPS cells [1]): 29±1.8% | Level of apoptosis (TUNEL and cleaved caspase-3 assays) (hiPS cells [2]; hPS cells in suspension culture): significantly lower levels of apoptosis | TUNEL-positive cells (hiPS cells [2]; hiPS cells under adherence condition, 24 h, n=3 (control 73±2.5%)): 11±3.8% | Population doubling time (hiPS cells [3]): approximately 32.1 h | Effect on cell-cell connections (hES cells): disrupted cell-cell connections | Oct3/4 and Nanog expression (Oct3/4 and Nanog): elevated levels of both transcription factors in a dose dependent manner | Karyotype (hiPS and hES cells): maintain genomic integrity | Cell survival in low-density suspension culture (hiPS cells and hES cells): markedly increased cell survival
